Data: patent US11975009B2, “Use of zinc porphyrin as an antimicrobial” (ZNABLE LLC, priority 2022, dated 2024)

Experiments:
[1] = test system: PAO1 and PA14 strains of PsA; test: Time kill curves, planktonic cells; assay type: cell-based, Pseudomonas aeruginosa
Protocol: FIGS. 13A-13B show the time kill curve of ZnPor (II) (25 μg/mL) against PAO1 (FIG. 12A) and PA14 (FIG. 12B) strains of PsA. Overnight cultures of strain PAO1 and PA14 grown in MSG media were diluted in fresh MSG to 10^6 cells/mL with fresh medium. ZnPor was added (25 μg/ml) and cultures were grown aerobically, with shaking, for 6 hours. Viable cell count (CFU per ml) was determined by serially diluting bacterial cells at the indicated time points, onto LB agar. Data from 3 separate experiments represents total mean±standard error, total (n=9) and (n=8) respectively.

PsA [2] = test: Testing for bacterial resistance; assay type: cell-based, Pseudomonas aeruginosa
Source text: One of the major concerns of developing novel small molecule antimicrobials is the potential for bacteria to develop resistance. […] The mechanism of action and target are believed to explain the absence of resistance. An MBC:MIC ratio of 2 which is what we derived from kill curves, was considered an indication of lack of resistance.

PsA PA14 biofilms = test: PA14 biofilm on polyethylene coupons, LIVE/DEAD stain, CLSM; assay type: cell-based, Pseudomonas aeruginosa; conditions: ZnPor 25 μg/mL 2 h, then PEV2 (MOI 10:1) 4 h
Protocol: Biofilms were grown on polyethylene coupons in CDC approved bioreactors in MSG media for […]. Overnight media was replaced with PBS and biofilms were treated as follows: (FIG. 19A) Control (no additions), (FIG. 19B) ZnPor (25 μg/mL) for 2 hours, (FIG. 19C) Phage PEV2 (MOI of 10:1) for 4 hours, or (FIG. 19D) ZnPor (25 μg/mL) for 2 hours followed by the addition of Phage PEV2 (MOI of 10:1) for 4 hours. Coupons were gently washed in distilled water and were treated with LIVE/DEAD™ stain. All coupons were imaged using confocal laser scanning […] microscopy (CLSM) at 60×.

[3] = test system: Human airway epithelial (BEAS2B, 16HBE, CFBE) and alveolar epithelial (A549) cells; test: LDH in supernatant of pulmonary cell lines; assay type: cell-based
Protocol: Representative of one experiment.
Human airway epithelial (BEAS2B, 16HBE, CFBE) and alveolar epithelial (A549) cells were cultured, plated on 12-well plates, serum starved overnight, and treated with increasing doses of ZnPor. Cell culture supernatants were collected after 48 h of treatment, and supernatants were then assayed for lactate dehydrogenase (LDH), a general marker of cell death released into the supernatant after cell lysis.

PsA [4] = test: Mouse model of PsA lung infection; assay type: in vivo, mice
Protocol: Mice were infected with PsA intratracheally, and subsequently treated with 125 μM ZnPor intratracheally. Bronchoalveolar lavage (BAL) was collected at 16 h. Bacterial titers were measured in BAL. *p<0.05, Mann-Whitney U. Representative of one experiment.
Based on in vitro experiments showing significant bactericidal activity of ZnPor against PsA and minimal toxicity of ZnPor in vitro in airway and alveolar epithelial cells as well as in monocytes/macrophages, the next experiments examined efficacy and safety of ZnPor in PsA infection in mice. Wildtype (WT) mice were anesthetized and infected with 5×10^6 CFU PsA via intratracheal route. Immediately following infection, mice were anesthetized again and treated with ZnPor (125 μM) or PBS (negative control). Mice were monitored for clinical signs of toxicity. At 16 h, mice were sacrificed and bronchoalveolar lavage (BAL) and lungs were isolated.

A549 cells = test: Lung cell toxicity, traditional cell culture; assay type: cell-based, human; conditions: concentration exceeding therapeutic range
Source text: Sample represented in graph is a traditional cell culture model and the cells were A549 cells—human lung epithelial cells.

[5] = test system: planktonic PsA PAO1 cells; test: Syber Green entry into planktonic cells (permeabilization); assay type: cell-based, Pseudomonas aeruginosa; conditions: pre-treated planktonic PsA cells
Protocol: Syber Green™ can pass through the cell wall into PsA cells pre-treated with ZnPor (II) at concentrations as low as 1 μg/mL; this is below the MIC (4 ug/m). Cells treated with ZnPor (II) allowed the entry of the Syber Green molecule even at sub-MIC concentrations of ZnPor (II).

phage PEV2 = test: Inactivation of phage PEV2 (PFU titer); set-up: species or system Pseudomonas phage PEV2
Protocol: Phage PEV2 was diluted to 10^9 PFU/mL in phage buffer and treated with ZnPor (25 μg/mL) for a total of 4 hours. A 300 W light was used to photoactivate ZnPor_light treatments for 20 minutes. Measurements of plaque forming units (PFU/mL) were taken at each timepoint by serially diluting phage to determine titer using a soft agar overlay protocol. Data from 3 separate experiments represents total mean±standard error, total (n=8).

[6] = test system: S. aureus MSSA and MRSA strains (GP); test: Killing activity against a range of bacteria; assay type: cell-based, Staphylococcus aureus
[7] = test system: Mycobacterium smegmatis (proxy for M. tuberculosis); test: Killing activity against a range of bacteria; assay type: cell-based
[8] = assay type: physicochemical
Source text: As used herein, “water soluble” refers to a property wherein a material is miscible in water, or in other words, is a capable of forming a homogenous solution with water at ambient conditions.

Drosophila melanogaster = conditions: flies fed ZnPor (II); Yoho et al. 2014; cited from earlier work
PsA PAO1 = test: Minimum inhibitory concentration (MIC) of ZnPor (II)

meso-5,10,15-tris(N-methyl-4-pyridyl)-20-(pentafluorophenyl)porphyrinatozinc(II), tris-p-toluene sulfonate [ZnPor]
bactericidal concentration ([1]; PsA): 25 µg/mL | MBC:MIC ratio ([1]; derived from kill curves): 2 | colony growth on LB plates (PsA [2]; 2×, 4× and 8×MIC concentration of ZnPor with PsA cell): No colony growth | resistance (PsA [2]; during 8 years of testing): no resistance was observed | effect on PA14 cells towards PEV2 phage (PsA PA14 biofilms): sensitive to PEV2 phage | LDH dose response ([3]; 16HBE, CFBE, and A549 cells): dose response of decreased LDH | LDH in cell culture supernatant vs treatment without ZnPor ([3]; 48 h of treatment, increasing doses): significantly less LDH | bacterial titers in BAL and lung homogenates (PsA [4]; WT mice, 5×10^6 CFU PsA intratracheal, ZnPor 125 μM, 16 h): significantly decreased PsA infection | clinical toxicity (PsA [4]; ZnPor-treated versus untreated mice, 125 μM): No clinical toxicity was observed | toxicity (A549 cells): No toxicity was observed | lowest ZnPor (II) concentration allowing Syber Green entry [5]: 1 µg/mL | effect of photoactivation on killing (phage PEV2; with photoactivation): quicker and greater killing | inactivation of viruses (phage PEV2; without light activation): able to inactivate viruses without light activation | effect on bacteriophage PEV2 (phage PEV2; without photoactivation): inactivates | killing [6]: effective at killing | killing [7]: effective at killing | water solubility [8]: water soluble | toxicity to Drosophila (Drosophila melanogaster): not toxic | MIC (PsA PAO1): 4 µg/mL
